Where two headings read alike, the source gives them in different places.
Tests used:
Test in all cases: SelectScreen Kinase Profiling, single point inhibition and IC50 for off-target kinases
Assay type in all cases: biochemical
off-target kinases [1] = molecular target: off-target kinases (Homo sapiens, UniProt O60674); settings: ATP Km app, ZLYTE
off-target kinases [2] = molecular target: off-target kinases (Homo sapiens, UniProt P08922); settings: ROS1, ZLYTE, ATP Km app
off-target kinases [3] = molecular target: off-target kinases (Homo sapiens, UniProt P37023); settings: ACVRL1 (ALK1), LanthaScreen Binding
off-target kinases [4] = molecular target: off-target kinases (Homo sapiens, UniProt Q15375); settings: EPHA7, LanthaScreen Binding
off-target kinases [5] = molecular target: off-target kinases (Homo sapiens, UniProt Q16288); settings: NTRK3 (TRKC), ZLYTE, ATP Km app
off-target kinases [6] = molecular target: off-target kinases (Homo sapiens, UniProt P49137); settings: MAPKAPK2, ZLYTE, ATP Km app
off-target kinases [7] = molecular target: off-target kinases (Homo sapiens, UniProt P06239); settings: LCK, ZLYTE, ATP Km app
off-target kinases [8] = molecular target: off-target kinases (Homo sapiens, UniProt P50750)
off-target kinases [9] = test system: off-target kinases
off-target kinases [10] = molecular target: off-target kinases (Homo sapiens, UniProt Q9HAZ1); settings: CLK4, LanthaScreen Binding
Sequence of off-target kinases (Homo sapiens, UniProt Q9HAZ1) (Q9HAZ1 whole entry): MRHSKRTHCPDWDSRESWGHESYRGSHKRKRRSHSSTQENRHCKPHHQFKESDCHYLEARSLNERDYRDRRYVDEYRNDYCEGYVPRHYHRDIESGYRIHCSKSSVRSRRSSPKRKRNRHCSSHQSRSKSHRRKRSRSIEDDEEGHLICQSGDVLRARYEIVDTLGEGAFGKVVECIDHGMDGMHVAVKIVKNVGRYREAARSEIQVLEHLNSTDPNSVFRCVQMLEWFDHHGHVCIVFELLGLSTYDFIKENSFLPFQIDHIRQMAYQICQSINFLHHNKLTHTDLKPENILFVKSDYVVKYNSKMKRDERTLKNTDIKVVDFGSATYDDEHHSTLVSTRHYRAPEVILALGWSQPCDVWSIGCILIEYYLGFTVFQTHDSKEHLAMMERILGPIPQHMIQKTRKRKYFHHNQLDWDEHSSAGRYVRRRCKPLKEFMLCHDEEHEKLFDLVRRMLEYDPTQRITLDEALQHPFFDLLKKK

Sequence of off-target kinases (Homo sapiens, UniProt Q15375) (Q15375 28-998): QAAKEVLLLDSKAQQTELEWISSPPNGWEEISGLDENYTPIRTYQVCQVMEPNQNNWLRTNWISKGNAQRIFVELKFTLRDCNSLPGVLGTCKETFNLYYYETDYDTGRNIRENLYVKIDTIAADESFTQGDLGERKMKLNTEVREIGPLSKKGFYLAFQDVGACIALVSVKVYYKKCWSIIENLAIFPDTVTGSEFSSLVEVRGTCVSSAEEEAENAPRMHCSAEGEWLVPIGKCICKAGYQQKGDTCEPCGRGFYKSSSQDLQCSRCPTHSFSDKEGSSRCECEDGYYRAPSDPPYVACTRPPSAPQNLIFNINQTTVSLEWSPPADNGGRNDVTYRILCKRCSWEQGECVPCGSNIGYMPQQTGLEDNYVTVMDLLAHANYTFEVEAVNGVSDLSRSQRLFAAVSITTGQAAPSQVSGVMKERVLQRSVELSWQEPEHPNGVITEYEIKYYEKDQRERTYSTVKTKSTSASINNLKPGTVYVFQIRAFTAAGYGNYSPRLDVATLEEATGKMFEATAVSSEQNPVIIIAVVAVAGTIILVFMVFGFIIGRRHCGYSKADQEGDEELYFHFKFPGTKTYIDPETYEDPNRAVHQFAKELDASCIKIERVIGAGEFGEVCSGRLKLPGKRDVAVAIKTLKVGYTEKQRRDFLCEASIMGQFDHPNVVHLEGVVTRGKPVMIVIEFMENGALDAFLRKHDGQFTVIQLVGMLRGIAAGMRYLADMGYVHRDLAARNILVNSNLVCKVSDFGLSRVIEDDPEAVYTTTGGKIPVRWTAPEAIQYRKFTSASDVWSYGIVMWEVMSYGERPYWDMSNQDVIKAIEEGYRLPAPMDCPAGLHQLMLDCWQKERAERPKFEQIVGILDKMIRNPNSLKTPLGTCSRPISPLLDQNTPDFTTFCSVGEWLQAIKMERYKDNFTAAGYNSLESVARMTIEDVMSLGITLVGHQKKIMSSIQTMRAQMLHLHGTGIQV
Sequence of off-target kinases (Homo sapiens, UniProt P37023) (P37023 22-503): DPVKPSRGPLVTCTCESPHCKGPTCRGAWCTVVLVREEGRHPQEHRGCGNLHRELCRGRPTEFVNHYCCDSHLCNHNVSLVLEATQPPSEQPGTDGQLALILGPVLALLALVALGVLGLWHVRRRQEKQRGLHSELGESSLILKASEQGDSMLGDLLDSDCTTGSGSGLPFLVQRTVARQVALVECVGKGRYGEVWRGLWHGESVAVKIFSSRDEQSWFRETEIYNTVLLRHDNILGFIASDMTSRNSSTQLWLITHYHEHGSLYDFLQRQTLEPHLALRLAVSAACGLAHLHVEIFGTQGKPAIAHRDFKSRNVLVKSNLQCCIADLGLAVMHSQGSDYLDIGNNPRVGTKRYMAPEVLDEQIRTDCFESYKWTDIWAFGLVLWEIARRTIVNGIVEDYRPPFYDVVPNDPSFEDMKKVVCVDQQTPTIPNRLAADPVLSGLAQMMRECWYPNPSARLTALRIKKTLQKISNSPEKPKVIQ
Sequence of off-target kinases (Homo sapiens, UniProt P50750) (P50750 whole entry): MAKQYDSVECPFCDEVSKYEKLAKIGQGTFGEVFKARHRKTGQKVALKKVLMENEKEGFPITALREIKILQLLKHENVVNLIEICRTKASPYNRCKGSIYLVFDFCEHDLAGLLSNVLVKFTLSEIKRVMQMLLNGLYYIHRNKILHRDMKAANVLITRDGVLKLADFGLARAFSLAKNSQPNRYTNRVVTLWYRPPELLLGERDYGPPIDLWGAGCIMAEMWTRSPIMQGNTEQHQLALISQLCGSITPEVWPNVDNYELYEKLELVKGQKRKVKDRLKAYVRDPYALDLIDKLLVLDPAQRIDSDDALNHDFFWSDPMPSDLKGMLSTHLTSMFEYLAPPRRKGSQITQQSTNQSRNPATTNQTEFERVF
Sequence of off-target kinases (Homo sapiens, UniProt Q16288) (Q16288 32-839): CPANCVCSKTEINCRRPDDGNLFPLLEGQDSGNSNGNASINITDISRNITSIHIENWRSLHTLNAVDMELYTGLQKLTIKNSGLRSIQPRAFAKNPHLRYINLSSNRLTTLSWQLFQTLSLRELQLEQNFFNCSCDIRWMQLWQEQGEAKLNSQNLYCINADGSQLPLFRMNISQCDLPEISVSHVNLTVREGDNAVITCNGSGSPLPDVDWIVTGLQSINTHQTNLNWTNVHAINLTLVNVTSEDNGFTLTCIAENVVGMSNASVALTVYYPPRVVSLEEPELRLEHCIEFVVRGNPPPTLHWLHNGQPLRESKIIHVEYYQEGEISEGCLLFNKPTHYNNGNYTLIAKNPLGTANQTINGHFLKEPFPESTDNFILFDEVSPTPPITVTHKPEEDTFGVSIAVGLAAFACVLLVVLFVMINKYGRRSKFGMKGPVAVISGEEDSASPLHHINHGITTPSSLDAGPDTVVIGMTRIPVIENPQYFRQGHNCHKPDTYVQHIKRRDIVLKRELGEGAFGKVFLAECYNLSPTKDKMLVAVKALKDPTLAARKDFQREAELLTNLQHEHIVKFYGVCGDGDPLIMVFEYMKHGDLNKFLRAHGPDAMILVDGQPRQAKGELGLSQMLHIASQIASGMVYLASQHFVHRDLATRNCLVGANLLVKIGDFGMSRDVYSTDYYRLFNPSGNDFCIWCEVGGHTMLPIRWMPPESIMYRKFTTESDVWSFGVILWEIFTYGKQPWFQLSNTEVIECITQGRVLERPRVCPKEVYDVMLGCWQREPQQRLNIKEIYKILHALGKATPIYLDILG
Sequence of off-target kinases (Homo sapiens, UniProt P49137) (P49137 whole entry): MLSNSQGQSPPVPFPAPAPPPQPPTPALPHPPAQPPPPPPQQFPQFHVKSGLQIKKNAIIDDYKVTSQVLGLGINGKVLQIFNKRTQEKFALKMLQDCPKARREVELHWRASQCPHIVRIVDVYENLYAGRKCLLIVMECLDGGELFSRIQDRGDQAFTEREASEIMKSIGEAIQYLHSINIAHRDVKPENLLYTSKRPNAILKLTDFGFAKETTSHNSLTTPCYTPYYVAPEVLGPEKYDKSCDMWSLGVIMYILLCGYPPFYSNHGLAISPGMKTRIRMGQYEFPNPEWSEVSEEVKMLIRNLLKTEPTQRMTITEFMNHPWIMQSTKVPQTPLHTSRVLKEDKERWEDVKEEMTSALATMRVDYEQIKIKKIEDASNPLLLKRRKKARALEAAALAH
Sequence of off-target kinases (Homo sapiens, UniProt O60674) (O60674 whole entry): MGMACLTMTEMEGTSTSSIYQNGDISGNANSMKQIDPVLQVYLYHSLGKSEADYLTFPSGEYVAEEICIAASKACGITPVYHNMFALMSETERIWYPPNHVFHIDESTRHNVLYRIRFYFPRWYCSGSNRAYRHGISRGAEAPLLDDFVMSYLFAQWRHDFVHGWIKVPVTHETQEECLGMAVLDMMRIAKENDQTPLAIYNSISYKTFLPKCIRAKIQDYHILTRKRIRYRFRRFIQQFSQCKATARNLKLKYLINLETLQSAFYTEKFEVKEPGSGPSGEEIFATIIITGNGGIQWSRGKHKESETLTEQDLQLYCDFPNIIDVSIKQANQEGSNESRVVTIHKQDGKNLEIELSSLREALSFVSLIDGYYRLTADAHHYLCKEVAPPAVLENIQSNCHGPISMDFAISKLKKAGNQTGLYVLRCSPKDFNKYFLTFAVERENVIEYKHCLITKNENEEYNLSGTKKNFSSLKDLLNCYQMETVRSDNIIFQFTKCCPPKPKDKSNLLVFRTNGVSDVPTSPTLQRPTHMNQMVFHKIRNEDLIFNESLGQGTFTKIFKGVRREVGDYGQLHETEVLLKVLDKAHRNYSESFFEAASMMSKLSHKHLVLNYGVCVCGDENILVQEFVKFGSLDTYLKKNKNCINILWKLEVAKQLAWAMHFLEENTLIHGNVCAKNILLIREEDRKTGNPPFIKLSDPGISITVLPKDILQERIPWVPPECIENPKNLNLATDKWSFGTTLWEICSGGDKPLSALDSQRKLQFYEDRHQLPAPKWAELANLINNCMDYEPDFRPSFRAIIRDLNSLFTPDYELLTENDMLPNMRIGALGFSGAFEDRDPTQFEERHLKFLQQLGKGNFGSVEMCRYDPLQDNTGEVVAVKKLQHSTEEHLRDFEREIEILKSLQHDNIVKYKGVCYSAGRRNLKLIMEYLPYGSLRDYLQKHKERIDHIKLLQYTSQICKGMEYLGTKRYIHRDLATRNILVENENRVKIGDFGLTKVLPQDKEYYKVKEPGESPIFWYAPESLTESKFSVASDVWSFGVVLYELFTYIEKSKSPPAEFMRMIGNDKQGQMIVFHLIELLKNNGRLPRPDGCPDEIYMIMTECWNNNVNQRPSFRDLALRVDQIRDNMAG

`N#Cc1cc(-c2ncnc(Nc3ccc(N4CCN(C5COC5)CC4)cc3)n2)ccc1OC1CCOCC1` [Compound 1, 5-(4-((4-(4-(oxetan-3-yl)piperazin-1-yl)phenyl)amino)-1,3,5-triazin-2-yl)-2-((tetrahydro-2H-pyran-4-yl)oxy)benzonitrile] gave an inhibition (off-target kinases [1]; JAK2, read-out: % Inhibition 1) of 67%, an inhibition (off-target kinases [1]; JAK2, read-out: % Inhibition 2) of 68% and an inhibition (off-target kinases [1]; JAK2, read-out: % Inhibition Avg) of 67%. The inhibition (off-target kinases [1]; JAK2 JH1 JH2, read-out: % Inhibition 1) was 46%, the inhibition (off-target kinases [1]; JAK2 JH1 JH2, read-out: % Inhibition 2) was 47% and the inhibition (off-target kinases [1]; JAK2 JH1 JH2, read-out: % Inhibition Avg) was 46%. For the same compound, the inhibition (off-target kinases [2]; read-out: % Inhibition 1) was 30%, the inhibition (off-target kinases [2]; read-out: % Inhibition 2) was 26% and the inhibition (off-target kinases [2]; read-out: % Inhibition Avg) was 28%. For the same compound, the inhibition (off-target kinases [3]; read-out: % Inhibition 1) was 33%, the inhibition (off-target kinases [3]; read-out: % Inhibition 2) was 38% and the inhibition (off-target kinases [3]; read-out: % Inhibition Avg) was 35%. The inhibition (off-target kinases [4]; read-out: % Inhibition 1) was 10%, the inhibition (off-target kinases [4]; read-out: % Inhibition 2) was 12% and the inhibition (off-target kinases [4]; read-out: % Inhibition Avg) was 11%. For the same compound, the inhibition (off-target kinases [5]; read-out: % Inhibition 1) was 17%, the inhibition (off-target kinases [5]; read-out: % Inhibition 2) was 19% and the inhibition (off-target kinases [5]; read-out: % Inhibition Avg) was 18%. For the same compound, the inhibition (off-target kinases [6]; read-out: % Inhibition 1) was 0%, the inhibition (off-target kinases [6]; read-out: % Inhibition 2) was -1% and the inhibition (off-target kinases [6]; read-out: % Inhibition Avg) was 0%. For the same compound, the inhibition (off-target kinases [7]; read-out: % Inhibition 1) was 41%, the inhibition (off-target kinases [7]; read-out: % Inhibition 2) was 38% and the inhibition (off-target kinases [7]; read-out: % Inhibition Avg) was 40%. The inhibition (off-target kinases [8]; CDK9 (Inactive), LanthaScreen Binding, read-out: % Inhibition 1) was 8%, the inhibition (off-target kinases [8]; CDK9 (Inactive), LanthaScreen Binding, read-out: % Inhibition 2) was 13% and the inhibition (off-target kinases [8]; CDK9 (Inactive), LanthaScreen Binding, read-out: % Inhibition Avg) was 10%. For the same compound, the inhibition (off-target kinases [8]; CDK9/cyclin K, LanthaScreen Binding, read-out: % Inhibition 1) was 11%, the inhibition (off-target kinases [8]; CDK9/cyclin K, LanthaScreen Binding, read-out: % Inhibition 2) was 9% and the inhibition (off-target kinases [8]; CDK9/cyclin K, LanthaScreen Binding, read-out: % Inhibition Avg) was 10%. It also gave an inhibition (off-target kinases [8]; CDK9/cyclin T1, Adapta, ATP Km app, read-out: % Inhibition 1) of 18%, an inhibition (off-target kinases [8]; CDK9/cyclin T1, Adapta, ATP Km app, read-out: % Inhibition 2) of 22% and an inhibition (off-target kinases [8]; CDK9/cyclin T1, Adapta, ATP Km app, read-out: % Inhibition Avg) of 20%. The JAK inhibitory activity (off-target kinases [9]) was “lacks JAK inhibitory activity”, the inhibition (off-target kinases [10]; read-out: % Inhibition 1) was 87% and the inhibition (off-target kinases [10]; read-out: % Inhibition 2) was 89%. It also gave an inhibition (off-target kinases [10]; read-out: % Inhibition Avg) of 88%.

Source: patent US11572590B2, “Methods for evaluating tumor cell spheroids using 3D microfluidic cell culture device” (Dana-Farber Cancer Institute, Inc., priority 2017, dated 2023)
